Format in all cases: functional, cell-based
Assay [1] has as its system HepG2. Put plainly: Antitumor activity against human HepG2 cells by MTT assay. (Tetrazolium assays rely on reduction of a dye to a coloured formazan, in cell work by metabolically active cells.)
The subject of assay [2] is K562. Put plainly: Antitumor activity against human K562 cells by MTT assay.
For assay [3], the system named is A-431. Put plainly: Antitumor activity against human A431 cells by MTT assay.
Assay [4] concerns HL-60. Put plainly: Antitumor activity against human HL60 cells by MTT assay.
Assay [5] has as its system SK-OV-3. Briefly: Antitumor activity against human SKOV3 cells by MTT assay.

Values after ≈ are worked out from the molar mass of the structure shown.

Broadly, the IC50 is the point on the concentration scale where inhibition reaches its midpoint. Low values mean inhibition by little substance, high ones a need for much substance. Turning to `COc1ccc(C(=O)C(=C2NCCN2)c2c(Cl)c(F)c(C#N)c(F)c2C#N)cc1`, the IC50 in assay [1] was determined as 9.8 µg/mL (≈ 23.6 µM); in assay [2], 22.6 µg/mL (≈ 54.5 µM); in assay [3] it was 0.7 µg/mL (≈ 1.69 µM); in assay [4], 0.05 µg/mL (≈ 0.121 µM); in assay [5], 1.1 µg/mL (≈ 2.65 µM).
For `N#Cc1c(F)c(F)c(C(C(=O)c2ccc(F)cc2)=C2NCCCN2)c(C#N)c1F` the same measures were 11 µg/mL (≈ 27.5 µM), 2.5 µg/mL (≈ 6.24 µM), 1.8 µg/mL (≈ 4.5 µM), 0.04 µg/mL (≈ 0.0999 µM) and 0.5 µg/mL (≈ 1.25 µM).
The matching figures for `N#Cc1c(F)c(Cl)c(C(C(=O)c2ccccc2)=C2NCCCCN2)c(C#N)c1F`: 27.8 µg/mL (≈ 67.3 µM), 2.1 µg/mL (≈ 5.09 µM), 1.5 µg/mL (≈ 3.63 µM), 0.1 µg/mL (≈ 0.242 µM) and 4.6 µg/mL (≈ 11.1 µM).
The matching figures for `CCOC(=O)C(=C1NCCN1)c1c(Cl)c(F)c(C#N)c(F)c1C#N`: 2.5 µg/mL (≈ 7.09 µM), 0.09 µg/mL (≈ 0.255 µM), 3.9 µg/mL (≈ 11.1 µM), 0.02 µg/mL (≈ 0.0567 µM) and 4.9 µg/mL (≈ 13.9 µM).
As for `CCOC(=O)C(=C1NCCN1)c1c(Cl)c(Cl)c(C#N)c(Cl)c1C#N`, the IC50 in assay [1] was determined as 0.2 µg/mL (≈ 0.519 µM); in assay [2] it was 0.5 µg/mL (≈ 1.3 µM); in assay [3], 0.2 µg/mL (≈ 0.519 µM); in assay [4] it was 0.4 µg/mL (≈ 1.04 µM); in assay [5], 4.1 µg/mL (≈ 10.6 µM).
Consider `N#Cc1c(F)c(Cl)c(C(C(=O)c2ccc(F)cc2)=C2NCCCN2)c(C#N)c1F`, for which the concentration for half-maximal inhibition (IC50) in assay [1] worked out at 45.1 µg/mL (≈ 108 µM); in assay [2], 1.8 µg/mL (≈ 4.32 µM); in assay [3] it was 0.9 µg/mL (≈ 2.16 µM); in assay [4], 0.6 µg/mL (≈ 1.44 µM); in assay [5] it was 8.2 µg/mL (≈ 19.7 µM).
For `N#Cc1c(Cl)c(Cl)c(C(C(=O)c2ccccc2)=C2NCCCCN2)c(C#N)c1Cl` the same measures were 14.5 µg/mL (≈ 32.5 µM), 0.1 µg/mL (≈ 0.224 µM), 1 µg/mL (≈ 2.24 µM), 0.2 µg/mL (≈ 0.449 µM) and 2.7 µg/mL (≈ 6.06 µM).
The matching figures for `N#Cc1c(Cl)c(Cl)c(C(C(=O)c2ccccc2)=C2NCCN2)c(C#N)c1Cl`: 10.2 µg/mL (≈ 24.4 µM), 8.5 µg/mL (≈ 20.4 µM), 2.3 µg/mL (≈ 5.51 µM), 9.1 µg/mL (≈ 21.8 µM) and 9.9 µg/mL (≈ 23.7 µM).
The matching figures for `COc1ccc(C(=O)C(=C2NCCN2)c2c(Cl)c(Cl)c(C#N)c(Cl)c2C#N)cc1`: 10.8 µg/mL (≈ 24.1 µM), 0.08 µg/mL (≈ 0.179 µM), 0.5 µg/mL (≈ 1.12 µM), 2.3 µg/mL (≈ 5.14 µM) and 6.4 µg/mL (≈ 14.3 µM).
Turning to `Cc1ccc(C(=O)C(=C2NCCN2)c2c(Cl)c(Cl)c(C#N)c(Cl)c2C#N)cc1`, the half-inhibitory concentration (IC50) in assay [1] came out at 15.8 µg/mL (≈ 36.6 µM); in assay [2], 1.4 µg/mL (≈ 3.24 µM); in assay [3], 4.1 µg/mL (≈ 9.5 µM); in assay [4], 15.7 µg/mL (≈ 36.4 µM); in assay [5] it was 9.2 µg/mL (≈ 21.3 µM).
In the case of `N#Cc1c(F)c(F)c(C(C(=O)c2ccccc2)=C2NCCN2)c(C#N)c1F`, the IC50 in assay [1] was found to be 9.1 µg/mL (≈ 24.7 µM); in assay [2], 19.6 µg/mL (≈ 53.2 µM); in assay [3], 5.5 µg/mL (≈ 14.9 µM); in assay [4] it was 0.2 µg/mL (≈ 0.543 µM); in assay [5], 30.3 µg/mL (≈ 82.3 µM).
For `N#Cc1c(F)c(Cl)c(C(C(=O)c2ccc(Cl)cc2)=C2NCCN2)c(C#N)c1F` the same measures were 47.5 µg/mL (≈ 113 µM), 1.6 µg/mL (≈ 3.82 µM), 1.8 µg/mL (≈ 4.29 µM), 0.3 µg/mL (≈ 0.716 µM) and 8.6 µg/mL (≈ 20.5 µM).
The matching figures for `Cc1ccc(C(=O)C(=C2NCCN2)c2c(Cl)c(F)c(C#N)c(F)c2C#N)cc1`: 49.1 µg/mL (≈ 123 µM), 41.9 µg/mL (≈ 105 µM), 1.7 µg/mL (≈ 4.26 µM), 0.03 µg/mL (≈ 0.0752 µM) and 6.7 µg/mL (≈ 16.8 µM).
On to `CC(=O)C(=C1NCCN1)c1c(Cl)c(F)c(C#N)c(F)c1C#N`, for which the IC50 in assay [1] was determined as 1.3 µg/mL (≈ 4.03 µM); in assay [2], 4.4 µg/mL (≈ 13.6 µM); in assay [3], 2.9 µg/mL (≈ 8.99 µM); in assay [4] it was 0.3 µg/mL (≈ 0.93 µM); in assay [5], 1.5 µg/mL (≈ 4.65 µM).
On to `CC(=O)C(=C1NCCN1)c1c(Cl)c(Cl)c(C#N)c(Cl)c1C#N`, for which the 50% inhibitory concentration (IC50) came to 5.8 µg/mL (≈ 16.3 µM) in assay [1]; 0.1 µg/mL (≈ 0.281 µM) in assay [2]; 1.5 µg/mL (≈ 4.22 µM) in assay [3]; 3.7 µg/mL (≈ 10.4 µM) in assay [4]; 14.1 µg/mL (≈ 39.6 µM) in assay [5].
As for `N#Cc1c(Cl)c(Cl)c(C(C(=O)c2ccc(F)cc2)=C2NCCCN2)c(C#N)c1Cl`, the IC50 in assay [1] came to 31.8 µg/mL (≈ 70.7 µM); in assay [2] it was 0.2 µg/mL (≈ 0.445 µM); in assay [3] it was 1.1 µg/mL (≈ 2.45 µM); in assay [4], 2.1 µg/mL (≈ 4.67 µM); in assay [5] it was 10.4 µg/mL (≈ 23.1 µM).
For `Cc1ccc(C(=O)C(=C2NCCN2)c2c(F)c(F)c(C#N)c(F)c2C#N)cc1` the same measures were 29.2 µg/mL (≈ 76.4 µM), 0.9 µg/mL (≈ 2.35 µM), 0.5 µg/mL (≈ 1.31 µM), 0.04 µg/mL (≈ 0.105 µM) and 2 µg/mL (≈ 5.23 µM).
With `N#Cc1c(F)c(C#N)c(C(C(=O)c2ccccc2)=C2NCCN2)c(F)c1Nc1ccccc1`, the IC50 in assay [1] is 102 µg/mL (≈ 231 µM); in assay [2] it was 5.6 µg/mL (≈ 12.7 µM); in assay [3], 5.3 µg/mL (≈ 12 µM); in assay [4], 0.3 µg/mL (≈ 0.68 µM); in assay [5] it was 0.2 µg/mL (≈ 0.453 µM).
The matching figures for `N#Cc1c(F)c(Cl)c(C(C(=O)c2ccccc2)=C2NCCN2)c(C#N)c1F`: 32.6 µg/mL (≈ 84.7 µM), 20.8 µg/mL (≈ 54.1 µM), 87.1 µg/mL (≈ 226 µM), 4.7 µg/mL (≈ 12.2 µM) and 32.6 µg/mL (≈ 84.7 µM).
For `N#Cc1c(Cl)c(Cl)c(C(C(=O)c2ccc(Cl)cc2)=C2NCCN2)c(C#N)c1Cl` the same measures were 5.2 µg/mL (≈ 11.5 µM), 0.8 µg/mL (≈ 1.77 µM), 1.5 µg/mL (≈ 3.32 µM), 0.5 µg/mL (≈ 1.11 µM) and 1.6 µg/mL (≈ 3.54 µM).
For `CCOC(=O)C(=C1NCCN1)c1c(F)c(F)c(C#N)c(F)c1C#N` the same measures were 0.7 µg/mL (≈ 2.08 µM), 0.03 µg/mL (≈ 0.0892 µM), 3.7 µg/mL (≈ 11 µM), 0.02 µg/mL (≈ 0.0595 µM) and 3.3 µg/mL (≈ 9.81 µM).
In the case of `N#Cc1c(F)c(F)c(C(C(=O)c2ccc(Cl)cc2)=C2NCCN2)c(C#N)c1F`, the IC50 in assay [1] was determined as 12.5 µg/mL (≈ 31 µM); in assay [2], 1.8 µg/mL (≈ 4.47 µM); in assay [3], 3.2 µg/mL (≈ 7.95 µM); in assay [4] it was 0.3 µg/mL (≈ 0.745 µM); in assay [5] it was 3.8 µg/mL (≈ 9.43 µM).
The matching figures for `N#Cc1c(F)c(F)c(C(C(=O)c2ccccc2)=C2NCCCCN2)c(C#N)c1F`: 24.9 µg/mL (≈ 62.8 µM), 0.3 µg/mL (≈ 0.757 µM), 1.9 µg/mL (≈ 4.79 µM), 0.1 µg/mL (≈ 0.252 µM) and 4.2 µg/mL (≈ 10.6 µM).
